Results on eight molecules are retold here after patent US12653191B2, “Active compound combinations” (Bayer Aktiengesellschaft, priority 2020, dated 2026).

The test system of test [1] is Botrytis cinerea. In words: in vitro-Test with fungal microorganisms, Method B (tables B15-B18). The test is classed as cell-based. The protocol:
(§1) Example: In Vitro-Test with Fungal Microorganisms
(§2) Wells of 96-well microtiter plates are filled with 30 μl of a preparation of test compound or compound combination in methanol+emulsifier alkylaryl-polyglycol-ether. Thereafter, the solvent is evaporated in a hood. At the next step, 200 μl of liquid growth medium is given, that has been amended with an appropriate concentration of spores or mycelium suspension of the test fungus.
(§3) With the aid of a photometer, the extinction in all wells is measured at the wavelength of 600 nm.
(§4) The microtiter plates are incubated for 3 to 7 days at 20° C. and 85% relative humidity. After the incubation inhibition of growth is determined photometrically. Efficacy is calculated in relation to the untreated control, 0% efficacy means fungal growth as high as in untreated control while 100% efficacy means no fungal growth is measured.
(§5) The data in tables A1 to A12, B1 to B14, C1 to C10, D1 to D8, E1 to E8, F1 to F11, G1 to G4, H1 to H4 and I1 to I5 were collected according to Method A. The data in tables A13 to A22, B15 to B18, C11 to C20, E9 to E16, F12 to F15, G5 to G15, H5 to H8, I6 to I11 and J1 to J11 were collected according to Method B.

Test [2] relates to Colletotrichum coccodes. In words: in vitro-Test with fungal microorganisms, Method B (tables J1-J11). The test is classed as cell-based. The protocol:
as §1, §2, §3, §4, §5

For test [3], the system named is Ustilago segetum var. avenae. Put plainly: in vitro-Test with fungal microorganisms, Method B (tables I6-I11). The test is classed as cell-based. The protocol:
as §1, §2, §3, §4, §5

In test [4] the test system is Fusarium culmorum. In words: in vitro-Test with fungal microorganisms, Method B (tables G5-G15). The test is classed as cell-based. The settings on record: for inhibition of growth at 0.008 ppm / inhibition of growth at 0.04 ppm / inhibition of growth at 0.2 ppm / inhibition of growth at 1 ppm: Fusarium culmorum, alone, read-out: Efficacy. How it is done:
as §1, §2, §3, §4, §5

Test [5] deals with Cordana musae. In words: in vitro-Test with fungal microorganisms, Method B (tables E9-E16). The test is classed as cell-based. As to conditions: single active. The protocol: as §1, §2, §3, §4, §5
Test [6] concerns Cercospora beticola. Put plainly: in vitro-Test with fungal microorganisms, Method B (tables C11-C20). The test is classed as cell-based. How it is done:
as §1, §2, §3, §4, §5

For test [7], the system named is Alternaria alternata. Put plainly: in vitro-Test with fungal microorganisms, Method B (tables A13-A22). The test is classed as cell-based. As to conditions: for inhibition of growth at 0.008 ppm / inhibition of growth at 0.04 ppm / inhibition of growth at 0.2 ppm / inhibition of growth at 1 ppm: Alternaria alternata, read-out: Efficacy. How it is done: as §1, §2, §3, §4, §5

For test [8], the system named is Cercospora beticola. Put plainly: in vitro-Test with fungal microorganisms, Method A (tables C1-C10). The test is classed as cell-based. The settings on record: Cercospora beticola, read-out: Efficacy %. The protocol:
as §1
(§6) Wells of 96-well microtiter plates are filled with 10 μl of a preparation of test compound or compound combination in methanol+emulsifier alkylaryl-polyglycol-ether. Thereafter, the solvent is evaporated in a hood. At the next step, 100 μl of liquid potato dextrose medium is given into each well, that has been amended with an appropriate concentration of spores or mycelium suspension of the test fungus.
(§7) With the aid of a photometer, the extinction in all wells is measured at the wavelength of 620 nm.
(§8) The microtiter plates are incubated at 20° C. and 85% relative humidity. The inhibition of growth is determined again photometrically 3-5 days after the application. Efficacy is calculated in relation to the untreated control, 0% efficacy means fungal growth as high as in untreated control while 100% efficacy means no fungal growth is measured.
as §5

For test [9], the system named is Diaporthe citri. Put plainly: in vitro-Test with fungal microorganisms, Method A (tables F1-F11). The test is classed as cell-based. The settings on record: Diaporthe citri, single active, read-out: Efficacy. The protocol:
as §1, §6, §7, §8, §5

Test [10] relates to Botrytis cinerea. In words: in vitro-Test with fungal microorganisms, Method A (tables B1-B14). The test is classed as cell-based. As to conditions: Botrytis cinerea, read-out: Efficacy. How it is done:
as §1, §6, §7, §8, §5

Test [11] deals with Alternaria alternate. Put plainly: in vitro-Test with fungal microorganisms, Method A (tables A1-A12). The test is classed as cell-based, Alternaria alternata. As to conditions: Alternaria, applied alone, read-out: Efficacy %. The protocol:
as §1, §6, §7, §8, §5

For test [12], the system named is Ustilago segetum var. avenae. Put plainly: in vitro-Test with fungal microorganisms, Method A (tables I1-I5). The test is classed as cell-based. As to conditions: alone, read-out: Efficacy %. How it is done:
as §1, §6, §7, §8, §5

Where [13] appears, read: Botrytis cinerea, 1 ppm alone, read-out: Efficacy %.

Several values for one entry are separate records, joined by “and”; a condition that tells them apart may be missing. Equal values may be shown once. Read-outs that look alike come from different tables or passages of the source.

As for `CCO[PH](=O)O` [fosetyl-al], the figures for the Efficacy % in [1] (4 ppm alone) and in test [1] (100 ppm alone) were 2% and 0%, respectively.

With `N#Cc1ccc(Oc2ccc(C(F)(F)C(O)(Cn3[nH]cnc3=S)c3ccc(F)cc3F)nc2)cc1` (stereo not drawn) [(1.062) fluoxytioconazole, fluoxytio-conazole], the Efficacy % was 32% in [2] (0.008 ppm); 0% in [2] (0.04 ppm); 0% in test [2] (single active compound at 0.008 ppm); 2% in [2] (single active compound at 0.04 ppm); 29% in test [2] (single active compound at 0.2 ppm); 35% in test [2] (single active compound at 1 ppm). In addition, the Efficacy % was 43% in test [3] (0.04 ppm); 0% in test [6] (single compound, 0.008 ppm); 0% in [6] (single compound, 0.04 ppm); 0% in [6] (single compound, 0.2 ppm); 48% and 54% in test [6] (single compound, 1 ppm). Also, the Efficacy in test [4] (single active compound, 1 ppm) is given as 30%; in test [5] (0.008 ppm), 4%; in test [5] (0.2 ppm) it was 10%.

Regarding `Cc1ccc(C[C@@H]2CON=C(c3cc(C)nnc3Oc3cccc(Cl)c3F)N2)c(Cl)c1` [Compound I-338, (5R)-3-[3-(3-chloro-2-fluorophenoxy)-6-methylpyridazin-4-yl]-5-(2-chloro-4-methylbenzyl)-5,6-dihydro-4H-1,2,4-oxadiazine], in test [7] (0.008 ppm), the Efficacy amounted to 0% and the inhibition of growth at 0.008 ppm was found to be 0%. Moreover, in test [4], the inhibition of growth at 0.008 ppm is 22%, the inhibition of growth at 0.04 ppm came to 21% and the inhibition of growth at 0.2 ppm came to 0%. In addition, the inhibition of growth at 1 ppm in [4] (1 ppm) stood at 0%. Further, the inhibition of growth at 1 ppm in [1] (setting [13]) turned out to be 85%.

With `CS(=O)(=O)Oc1cccc(Cl)c1C1CC(c2csc(C3CCN(C(=O)Cn4nc(C(F)F)cc4C(F)F)CC3)n2)=NO1` (stereo not drawn) [fluoxapiprolin], the Efficacy in [7] (4 ppm) is 0%; in test [7] (20 ppm), 1%; in [7] (single compound, 0.8 ppm), 0%. Also, the Efficacy % in test [1] (0.8 ppm, alone) stood at 0%; in test [1] (4 ppm alone), 6%; in test [1] (20 ppm alone) it was 5%; in [6] (20 ppm), 0%.

For the molecule `Cc1ccc(CC2CON=C(c3cc(C)nnc3Oc3cccc(C4CC4)c3F)N2)c(C)c1` (racemic) [Compound I-052, rac-3-[3-(3-cyclopropyl-2-fluorophenoxy)-6-methylpyridazin-4-yl]-5-[(2,4-dimethylphenyl)methyl]-5,6-dihydro-4H-1,2,4-oxadiazine], the inhibition of growth at 0.0008 ppm in [8] (0.0008 ppm alone) was 0%; in test [9] (0.0008 ppm) it was 0%; in [10] (0.0008 ppm), 0%; in test [11] (0.0008 ppm), 2%; in test [12] (0.0008 ppm), 2%. Besides, the inhibition of growth at 0.004 ppm was found to be 0% in test [8] (0.004 ppm alone); 0% in test [9] (0.004 ppm); 0% in [10] (0.004 ppm); 0% in test [11] (0.004 ppm); 3% in test [12] (0.004 ppm). The inhibition of growth at 0.02 ppm in [8] (0.02 ppm alone) was found to be 0%; in [9] (0.02 ppm) it was 100%; in test [10] (0.02 ppm) it was 0%; in [11] (0.02 ppm), 9%; in test [12] (0.02 ppm) it was 0%. Besides, the inhibition of growth at 0.1 ppm in [8] (0.1 ppm alone) is 20%; in [9] (0.1 ppm) it was 100%; in [10] (0.1 ppm), 88%; in [11] (0.1 ppm), 72%; in test [12] (0.1 ppm) it was 0%.

As for `Cc1ccc(C[C@H]2CON=C(c3cc(C)nnc3Oc3cccc(Cl)c3F)N2)c(Cl)c1` [Compound I-339, (5S)-3-[3-(3-chloro-2-fluoro-phenoxy)-6-methylpyridazin-4-yl]-5-(2-chloro-4-methylbenzyl)-5,6-dihydro-4H-1,2,4-oxadiazine], the inhibition of growth at 0.008 ppm in test [3] (alone, 0.008 ppm, read-out: Efficacy %) is 2%; in [4] it was 0%; in [5] (Neocordana musae, 0.008 ppm, read-out: Efficacy) it was 63%; in test [6] (Cercospora beticola, 0.008 ppm, read-out: Efficacy %), 28%. For the same molecule, the inhibition of growth at 0.04 ppm in test [3] (alone, 0.04 ppm, read-out: Efficacy %) is 0%; in [7] (single compound) it was 100%; in test [4], 0%; in test [5] (Neocordana musae, 0.04 ppm, read-out: Efficacy) it was 100%; in [6] (Cercospora beticola, 0.04 ppm, read-out: Efficacy %), 0%. The inhibition of growth at 0.2 ppm in [3] (alone, 0.2 ppm, read-out: Efficacy %) is 0%; in [7] (single compound), 100%; in [4], 14%; in test [5] (Neocordana musae, 0.2 ppm, read-out: Efficacy) it was 100%; in test [6] (Cercospora beticola, 0.2 ppm, read-out: Efficacy %), 61%. The inhibition of growth at 1 ppm in test [3] (alone, 1 ppm, read-out: Efficacy %) stood at 0%; in test [7] (single compound), 100%; in test [4] (1 ppm), 99%; in test [5] (Neocordana musae, 1 ppm, read-out: Efficacy), 100%; in test [6] (Cercospora beticola, 1 ppm, read-out: Efficacy %) it was 98%.

Turning to `Cc1ccc(C[C@H]2CON=C(c3cc(C)nnc3Oc3cccc(C4CC4)c3F)N2)c(C)c1` [Compound I-130, (5S)-3-[3-(3-cyclopropyl-2-fluorophenoxy)-6-methylpyridazin-4-yl]-5-(2,4-dimethylbenzyl)-5,6-dihydro-4H-1,2,4-oxadiazine], the inhibition of growth at 0.008 ppm in test [2] (Colletotrichum coccodes, applied alone, 0.008 ppm, read-out: Efficacy %) was determined as 94%; in test [7] (0.008 ppm), 25%; in test [1] (Botrytis cinerea, 0.008 ppm alone, read-out: Efficacy %), 96%. The inhibition of growth at 0.04 ppm is 100% in test [2] (Colletotrichum coccodes, applied alone, 0.04 ppm, read-out: Efficacy %); 100% in test [7]; 100% in test [1] (Botrytis cinerea, 0.04 ppm alone, read-out: Efficacy %). Besides, the inhibition of growth at 0.2 ppm in test [2] (Colletotrichum coccodes, applied alone, 0.2 ppm, read-out: Efficacy %) was determined as 100%; in [7] it was 100%; in test [1] (Botrytis cinerea, 0.2 ppm alone, read-out: Efficacy %) it was 100%. The inhibition of growth at 1 ppm in test [2] (Colletotrichum coccodes, applied alone, 1 ppm, read-out: Efficacy %) came out at 100%; in test [7], 100%; in test [1] (setting [13]), 100%.

For the molecule `N#Cc1ccc(Oc2ccc(C(F)(F)C(O)(Cn3[nH]cnc3=S)c3ccc(F)cc3F)nc2)cc1` (stereo not drawn) [fluoxytioconazole], the Efficacy % in [3] (alone, 0.008 ppm) is 8%; in [3] (alone, 0.04 ppm) it was 35%; in [3] (alone, 0.2 ppm), 100%; in test [1] (0.008 ppm alone), 0%; in test [1] (0.2 ppm alone) it was 0%; in [1] (1 ppm alone), 13%. Besides, the Efficacy in test [7] (single compound, 0.008 ppm) amounted to 5%; in test [4] (0.008 ppm alone) it was 12%; in test [4] (1 ppm alone) it was 27%.
